Assay results published in patent US20240067657A1, “AMIDO-SUBSTITUTED PYRIDYL COMPOUNDS AND METHODS OF USE THEREOF FOR THE TREATMENT OF HERPESVIRUSES” (Merck Sharp & Dohme LLC, priority 2020, published 2024).
Like-named read-outs stand apart in the source and are kept apart here.

What was measured:
[1] = biological target: T1, Human cytomegalovirus DNA polymerase (Human cytomegalovirus, UniProt P08546); test: HCMV polymerase assay (AlphaLISA, IC50); format: biochemical; conditions: polymerase assay of Example 190
T1 construct: made in house; host or cells: SF21 insect cells (baculovirus vector)
Summary of the method: (§1)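 Baculovirus-expressed polymerase (HCMV 0.2 nM, VZV 0.4 nM final) preincubated 30 min at room temperature with compound in pH 7.5 HEPES buffer; reaction started with 1.6 nM DIG-primer/template and nM dNTPs including biotin-dUTP, run 60 min at 37° C. Incorporation detected by AlphaLISA; IC50 from 4-parameter fit.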

[2] = biological target: T2, varicella zoster virus DNA polymerase (Varicella-zoster virus, UniProt P09252); test: VZV polymerase assay (AlphaLISA, IC50); format: biochemical; conditions: polymerase assay of Example 190
T2 construct: made in house; host or cells: SF21 insect cells (baculovirus vector)
Summary of the method: as §1

[3] = system: HCMV Strain AD169 in MRC-5 cells; test: Viral qPCR assay HCMV (V0/V1, V2/V3), EC50; format: cell-based
Summary of the method: (§2)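 Infected cells added to compounds (10-point 3-fold series), ~72 h at 37 °C, then lysed; viral genomes by TaqMan qPCR against plasmid standard, normalized to PPIA in V0/V1 only, EC50 from 4-parameter fit. HCMV AD169, 0.05-0.1 pfu/cell, ± 50% FBS; VZV 0.04-0.1 pfu/cell; HSV-1 F 0.0005-0.004 pfu/cell.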

[4] = system: VZV in MeWo or MRC5 cells; test: Viral qPCR assay VZV (V0/V1, V2/V3), EC50; format: cell-based
Summary of the method: as §2

[5] = system: HSV-1 Strain F in Vero or MRC5 cells; test: Viral qPCR assay HSV-1 (V0/V1, V2/V3), EC50; format: cell-based
Summary of the method: as §2

[6] = Human betaherpesvirus 5, AD169, MRC5, viral qPCR assay of Example 191, read-out: HCMV Cell (EC50)
[7] = Human alphaherpesvirus 3, MRC5, MRC5 cells, 10%, read-out: VZV Cell (EC50) MRC5 10%
[8] = Human alphaherpesvirus 1, MRC5, MRC5 cells, 10%, read-out: HSV1 Cell (EC50) MRC5 10%

T1 sequence (P08546 whole entry): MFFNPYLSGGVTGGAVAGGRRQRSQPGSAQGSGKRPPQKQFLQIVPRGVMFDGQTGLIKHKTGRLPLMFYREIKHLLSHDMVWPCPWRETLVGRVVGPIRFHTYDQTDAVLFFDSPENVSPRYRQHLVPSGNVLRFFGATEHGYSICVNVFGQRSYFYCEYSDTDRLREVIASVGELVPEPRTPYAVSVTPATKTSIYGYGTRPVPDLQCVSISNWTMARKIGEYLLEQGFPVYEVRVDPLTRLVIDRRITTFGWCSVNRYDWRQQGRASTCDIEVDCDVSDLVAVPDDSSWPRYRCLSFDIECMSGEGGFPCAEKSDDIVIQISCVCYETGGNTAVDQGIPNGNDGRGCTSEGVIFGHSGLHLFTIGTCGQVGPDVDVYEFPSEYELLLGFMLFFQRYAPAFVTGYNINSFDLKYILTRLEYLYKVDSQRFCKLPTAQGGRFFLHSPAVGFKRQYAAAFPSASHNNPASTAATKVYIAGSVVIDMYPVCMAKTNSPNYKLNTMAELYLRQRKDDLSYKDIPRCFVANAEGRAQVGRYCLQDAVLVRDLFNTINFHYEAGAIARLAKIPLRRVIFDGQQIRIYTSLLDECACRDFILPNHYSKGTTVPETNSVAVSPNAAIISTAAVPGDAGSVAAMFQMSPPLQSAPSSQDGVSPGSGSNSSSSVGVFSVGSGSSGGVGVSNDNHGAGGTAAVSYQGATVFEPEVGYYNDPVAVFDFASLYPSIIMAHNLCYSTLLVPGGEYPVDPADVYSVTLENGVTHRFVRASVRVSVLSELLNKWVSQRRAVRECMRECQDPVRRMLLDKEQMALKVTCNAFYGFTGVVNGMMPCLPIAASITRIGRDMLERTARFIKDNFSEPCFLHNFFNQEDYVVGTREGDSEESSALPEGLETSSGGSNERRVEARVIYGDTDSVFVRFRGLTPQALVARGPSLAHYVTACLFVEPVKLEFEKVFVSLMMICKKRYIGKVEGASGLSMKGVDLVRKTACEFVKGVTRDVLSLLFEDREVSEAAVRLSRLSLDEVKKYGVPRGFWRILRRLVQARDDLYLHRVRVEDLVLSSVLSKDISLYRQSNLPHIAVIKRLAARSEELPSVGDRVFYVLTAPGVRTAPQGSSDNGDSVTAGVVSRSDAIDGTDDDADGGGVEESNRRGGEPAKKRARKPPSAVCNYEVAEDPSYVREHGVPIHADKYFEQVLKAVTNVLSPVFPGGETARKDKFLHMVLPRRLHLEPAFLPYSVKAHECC
T2 sequence (P09252 whole entry): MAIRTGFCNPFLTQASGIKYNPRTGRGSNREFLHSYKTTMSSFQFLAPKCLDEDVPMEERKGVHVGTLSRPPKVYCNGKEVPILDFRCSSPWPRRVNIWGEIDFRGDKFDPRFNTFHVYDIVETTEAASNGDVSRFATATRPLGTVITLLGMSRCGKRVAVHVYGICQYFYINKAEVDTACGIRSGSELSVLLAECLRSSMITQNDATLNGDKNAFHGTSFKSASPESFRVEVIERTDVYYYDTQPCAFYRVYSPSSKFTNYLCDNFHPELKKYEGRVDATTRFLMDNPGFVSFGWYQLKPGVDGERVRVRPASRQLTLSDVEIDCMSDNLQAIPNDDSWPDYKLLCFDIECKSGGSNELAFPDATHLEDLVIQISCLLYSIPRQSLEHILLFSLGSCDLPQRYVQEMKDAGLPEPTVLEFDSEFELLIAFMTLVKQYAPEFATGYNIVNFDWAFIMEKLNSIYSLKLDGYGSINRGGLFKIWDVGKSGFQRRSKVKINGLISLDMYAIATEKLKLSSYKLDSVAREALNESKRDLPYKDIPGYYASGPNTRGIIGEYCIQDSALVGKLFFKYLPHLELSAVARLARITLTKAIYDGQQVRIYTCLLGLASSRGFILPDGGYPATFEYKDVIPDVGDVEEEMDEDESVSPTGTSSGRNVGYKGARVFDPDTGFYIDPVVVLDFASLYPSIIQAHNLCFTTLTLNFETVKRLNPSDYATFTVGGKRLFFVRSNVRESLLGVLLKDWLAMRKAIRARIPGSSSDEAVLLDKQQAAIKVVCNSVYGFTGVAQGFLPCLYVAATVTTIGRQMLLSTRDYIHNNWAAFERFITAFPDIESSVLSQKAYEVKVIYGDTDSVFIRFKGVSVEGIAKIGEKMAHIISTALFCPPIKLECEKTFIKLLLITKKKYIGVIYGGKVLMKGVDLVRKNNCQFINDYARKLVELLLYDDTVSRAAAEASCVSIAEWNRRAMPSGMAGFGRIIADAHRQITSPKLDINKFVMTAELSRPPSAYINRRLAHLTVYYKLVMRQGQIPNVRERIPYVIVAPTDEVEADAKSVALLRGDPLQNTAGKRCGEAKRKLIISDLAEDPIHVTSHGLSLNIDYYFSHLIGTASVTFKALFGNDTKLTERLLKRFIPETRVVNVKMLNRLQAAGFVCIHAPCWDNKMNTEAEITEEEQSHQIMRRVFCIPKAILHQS

N#Cc1cnc(C(=O)NCc2ccc(Cl)cc2)cc1O[C@H]1CCN2C(=O)OCC[C@@H]2C1 [Compound 164]
IC50 [1]: 18.3 nM
IC50 [2]: 2.37 nM
EC50 [3, 6]: 436 nM
EC50 [4, 7]: 684 nM
EC50 [5, 8]: 469 nM

CC(=O)N1CC[C@@H](Oc2cc(C(=O)NCc3ccc(Cl)cc3)ncc2-c2cnc(C)o2)C[C@H]1C [Compound 165]
IC50 [1]: 5.28 nM
IC50 [2]: 6.25 nM
EC50 [3, 6]: 141 nM
EC50 [4, 7]: 138 nM
EC50 [5, 8]: 122 nM

O=C(NCc1ccc(Cl)cc1)c1cc(O[C@H]2CCN3C(=O)CC[C@@H]3C2)c(-c2cnn(C(F)F)c2)cn1 [Compound 166]
IC50 [1]: 9.49 nM
IC50 [2]: 8.58 nM
EC50 [3, 6]: 565 nM
EC50 [4, 7]: 241 nM
EC50 [5, 8]: 370 nM

CC(=O)N1CCC(Oc2cc(C(=O)NCc3ccc(Cl)cc3)ncc2-c2cnn(C(F)F)c2)CC1C (centres unmarked) [Compound 167]
IC50 [1]: 28.6 nM
IC50 [2]: 8.55 nM
EC50 [3, 6]: 198 nM
EC50 [4, 7]: 679 nM
EC50 [5, 8]: 423 nM

Cn1cc(-c2cnc(C(=O)NCc3ccc(Cl)cc3)cc2OC2CCC(C#N)CC2)cn1 (centres unmarked) [Compound 168]
IC50 [1]: 104 nM
IC50 [2]: 67.6 nM
EC50 [3, 6]: 1110 nM
EC50 ([4]; Human alphaherpesvirus 3, MeWo, MEWO cells, 10%, read-out: VZV Cell (EC50) MEWO 10%): 590 nM
EC50 ([5]; Human alphaherpesvirus 1, Vero, VERO cells, 10%, read-out: HSV1 Cell (EC50) VERO 10%): 529 nM

C[C@@H]1CN(C)CCN1c1cc(C(=O)NCc2ccc(Cl)cc2)ncc1C#N [Compound 175]
IC50 [1]: 48.2 nM
IC50 [2]: 76.9 nM
EC50 [3, 6]: 1220 nM
EC50 [4, 7]: 3320 nM
EC50 [5, 8]: 3390 nM

C[C@@H]1CN(C)CCN1c1cc(C(=O)NCc2ccc(Cl)cc2)ncc1OCC(F)(F)F [Compound 176]
IC50 [1]: 218 nM
IC50 [2]: 115 nM
EC50 ([3]; Human betaherpesvirus 5, AD169, MRC5, read-out: HCMV Cell (EC50)): 2480 nM
EC50 ([4]; Human alphaherpesvirus 3, MeWo, read-out: VZV Cell (EC50) MEWO 10%): 1240 nM
EC50 ([5]; Human alphaherpesvirus 1, Vero, read-out: HSV1 Cell (EC50) VERO 10%): 2180 nM
